Biological target: T1, ERα protein (HiBiT-tagged) in ESR1_HiBiT KI MCF7 cells (Homo sapiens, UniProt P03372)
T1 sequence (P03372 1-595): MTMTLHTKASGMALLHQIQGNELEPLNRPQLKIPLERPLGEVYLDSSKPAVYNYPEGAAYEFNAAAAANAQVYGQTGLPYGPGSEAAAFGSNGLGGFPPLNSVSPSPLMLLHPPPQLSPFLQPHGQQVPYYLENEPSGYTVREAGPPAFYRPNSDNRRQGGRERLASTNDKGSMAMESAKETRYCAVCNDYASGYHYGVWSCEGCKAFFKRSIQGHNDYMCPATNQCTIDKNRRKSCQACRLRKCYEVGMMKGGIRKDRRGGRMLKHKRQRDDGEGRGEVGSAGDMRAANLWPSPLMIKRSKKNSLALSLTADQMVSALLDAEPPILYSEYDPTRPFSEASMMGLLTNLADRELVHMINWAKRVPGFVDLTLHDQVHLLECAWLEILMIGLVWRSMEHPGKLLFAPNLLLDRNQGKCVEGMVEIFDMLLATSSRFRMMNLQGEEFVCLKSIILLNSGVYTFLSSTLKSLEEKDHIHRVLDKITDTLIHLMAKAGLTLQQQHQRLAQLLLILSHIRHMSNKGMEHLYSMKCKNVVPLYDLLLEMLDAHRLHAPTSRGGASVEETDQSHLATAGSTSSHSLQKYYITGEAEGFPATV
Assay: Nano Glo HiBiT Lytic Degradation Assay
Format: cell-based
Settings: 6 hours with compound, 14-point dose response 1:3, bell-shape curve fit, half-maximal effect of first Hill model, read-out: MCF7 ESR1 HiBiT - (DC50)
In short: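 Lytic Nano-Glo HiBiT luminescence quantified ERα remaining after a 6 h, 37° C compound exposure of MCF7 cells carrying endogenous HiBiT-tagged ESR1. Dosing used 14 threefold dilutions from a 10 mM DMSO stock (0.1% DMSO final), run in duplicate. Signals were corrected for cell-free background and expressed relative to DMSO, and DC50 came from a bell-shaped curve fit (first Hill model half-maximum).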

Q: How did the DC50 turn out when O=C1CCC(c2cccc(N3CC[C@H]4[C@@H]3CCN4CC3CCN(c4ccc([C@@H]5c6ccc(O)cc6CC[C@@H]5c5ccccc5)cc4)CC3)c2)C(=O)N1 (stereo partly drawn) [Compound I-179, 3-(3-((3aS,6aS)-4-((1-(4-((1R,2S)-6-hydroxy-2-phenyl-1,2,3,4-tetrahydronaphthalen-1-yl)phenyl)piperidin-4-yl)methyl)hexahydropyrrolo[3,2-b]pyrrol-1 (2H)-yl)phenyl)piperidine-2,6-dione] was run?
A: 34 nM

Q: C[C@]1(C2CCCCC2)CCc2cc(O)ccc2[C@@H]1c1ccc(N2CCC(CN3CCN(c4ccc5c(c4)CN([C@H]4CCC(=O)NC4=O)C5=O)CC3)CC2)cc1 [Compound I-239, (S)-3-(5-(4-((1-(4-((1S,2R)-2-cyclohexyl-6-hydroxy-2-methyl-1,2,3,4-tetrahydronaphthalen-1-yl)phenyl)piperidin-4-yl)methyl)piperazin-1-yl)-1-oxoisoindolin-2-yl)piperidine-2,6-dione] was tested. Which DC50 did it give?
A: 1990 nM

Q: With Cn1nc(N2CCC(=O)NC2=O)c2ccc(N3CCN(CC4CCN(c5ccc([C@@H]6c7ccc(O)cc7CC[C@@H]6c6ccccc6)cc5)CC4)CC3)cc21 [Compound I-299, 1-(6-(4-((1-(4-((1R,2S)-6-hydroxy-2-phenyl-1,2,3,4-tetrahydronaphthalen-1-yl)phenyl)piperidin-4-yl)methyl)piperazin-1-yl)-1-methyl-1H-indazol-3-yl)dihydropyrimidine-2,4 (1H,3H)-dione] as the molecule, how does the DC50 read?
A: 1 nM

Q: O=C1CC[C@H](N2Cc3cc(N4CCN(CC5CCN(c6ccc([C@H]7c8ccc(O)cc8CO[C@H]7C7CCC7)cc6)CC5)CC4)ccc3C2=O)C(=O)N1 [Compound I-244, (S)-3-(5-(4-((1-(4-((3S,4S)-3-cyclobutyl-7-hydroxyisochroman-4-yl)phenyl)piperidin-4-yl)methyl)piperazin-1-yl)-1-oxoisoindolin-2-yl)piperidine-2,6-dione] was tested. Which DC50 did it give?
A: 4 nM

Q: O=C1CC[C@H](N2Cc3cc(N4CCN(CC5CCN(c6ccc([C@@H]7c8ccc(O)cc8CC[C@@H]7c7ccccc7F)cc6)CC5)CC4)ccc3C2=O)C(=O)N1 (single isomer, unassigned) [II-24] was tested. Which DC50 did it give?
A: 245 nM

Q: How did the DC50 turn out when O=C1CC[C@H](N2Cc3cc(N4CCN(CC5CCN(c6ccc([C@@H]7c8ccc(O)cc8CC[C@@H]7C7CCCCC7)cc6F)CC5)CC4)ccc3C2=O)C(=O)N1 [Compound I-162, (S)-3-(5-(4-((1-(4-((1R,2R)-2-cyclohexyl-6-hydroxy-1,2,3,4-tetrahydronaphthalen-1-yl)-2-fluorophenyl)piperidin-4-yl)methyl)piperazin-1-yl)-1-oxoisoindolin-2-yl)piperidine-2,6-dione] was run?
A: 3 nM

Q: Cc1cc([C@@H]2CCc3cc(O)ccc3[C@@H]2c2ccc(N3CCC(CN4CCN(c5ccc6c(c5)CN([C@H]5CCC(=O)NC5=O)C6=O)CC4)CC3)cc2)n(C)n1 (single isomer, unassigned) [Compound I-415] was tested. Which DC50 did it give?
A: 0.02 nM

Q: O=C1CCC(c2ccc(N3CCC4(CCN(CC5CCN(c6ccc([C@@H]7c8ccc(O)cc8CC[C@@H]7c7ccccc7)cc6)CC5)C4)CC3)cc2)C(=O)N1 (single isomer, unassigned) [Compound I-421] was tested. Which DC50 did it give?
A: 0.77 nM

Q: For C[C@H]1CN(CC2CCN(c3ccc([C@H]4c5ccc(O)cc5CC[C@H]4c4ccccc4)cc3)CC2)CCN1c1ccc2c(c1)CN([C@H]1CCC(=O)NC1=O)C2=O (single isomer, unassigned) [II-12], which DC50 is on record?
A: ≥ 10000 nM

Q: With O=C1CC[C@H](N2Cc3cc(N4CCN(CC5CCN(c6ccc([C@@H]7c8ccc(Cl)cc8CC[C@@H]7c7ccccc7)cc6)CC5)CC4)ccc3C2=O)C(=O)N1 [II-60] as the molecule, how does the DC50 read?
A: ≥ 10000 nM

Q: With O=C1CC[C@H](N2Cc3cc(N4CCN(CCCCCOc5ccc([C@@H]6c7ccc(O)cc7CC[C@@H]6c6ccccc6)cc5)CC4)ccc3C2=O)C(=O)N1 [II-66] as the molecule, how does the DC50 read?
A: 0.33 nM

Q: Which DC50 does the source give for O=C1CC[C@H](N2Cc3cc(N4C[C@H]5C[C@@H]4CN5CC4CCN(c5ccc([C@H]6c7ccc(O)cc7CC[C@H]6c6ccccc6)cc5)CC4)ccc3C2=O)C(=O)N1 (single isomer, unassigned) [II-6] here?
A: ≥ 10000 nM

Q: With O=C1CCN(c2ccc(N3CCC4(CCN(CC5CCN(c6ccc([C@@H]7c8ccc(O)cc8CC[C@@H]7c7ccccc7)cc6)CC5)C4)CC3)cc2)C(=O)N1 [Compound I-291, 1-(4-(2-((1-(4-((1R,2S)-6-hydroxy-2-phenyl-1,2,3,4-tetrahydronaphthalen-1-yl)phenyl)piperidin-4-yl)methyl)-2,8-diazaspiro[4.5]decan-8-yl)phenyl)dihydropyrimidine-2,4 (1H,3H)-dione] as the molecule, how does the DC50 read?
A: 0.7 nM

Q: How did the DC50 turn out when Cc1cc(N2CCC(CN3CCN(c4ccc5c(c4)CN([C@H]4CCC(=O)NC4=O)C5=O)CC3)CC2)ccc1[C@@H]1c2ccc(O)cc2CC[C@@H]1C1CCCCC1 [Compound I-141, (S)-3-(5-(4-((1-(4-((1R,2R)-2-cyclohexyl-6-hydroxy-1,2,3,4-tetrahydronaphthalen-1-yl)-3-methylphenyl)piperidin-4-yl)methyl)piperazin-1-yl)-1-oxoisoindolin-2-yl)piperidine-2,6-dione] was run?
A: 2 nM

Q: With CC(C)C[C@H]1CC(F)(F)c2cc(O)ccc2[C@H]1c1ccc(N2CCC(CN3CCN(c4ccc5c(c4)CN([C@H]4CCC(=O)NC4=O)C5=O)CC3)CC2)cc1 [Compound I-197, (S)-3-(5-(4-((1-(4-((1R,2S)-4,4-difluoro-6-hydroxy-2-isobutyl-1,2,3,4-tetrahydronaphthalen-1-yl)phenyl)piperidin-4-yl)methyl)piperazin-1-yl)-1-oxoisoindolin-2-yl)piperidine-2,6-dione] as the molecule, how does the DC50 read?
A: 0.49 nM

Q: Which DC50 does the source give for O=C1CC[C@H](N2Cc3cc(N4CCN(C[C@@H]5CCN(c6ccc([C@H]7c8ccc(O)cc8CC[C@H]7c7ccccc7)cc6)C5)CC4)ccc3C2=O)C(=O)N1 (single isomer, unassigned) [II-33] here?
A: 2 nM

Q: O=C1CC[C@@H](c2ccc(N3CCC4(CCN(CC5CCN(c6ccc([C@@H]7c8ccc(O)cc8C(F)(F)C[C@@H]7c7ccccc7)cc6)CC5)C4)CC3)cc2)C(=O)N1 (single isomer, unassigned) [Compound I-286] was tested. Which DC50 did it give?
A: 91.1 nM

Q: With C[C@H]1Cc2cc(O)ccc2[C@@H](c2ccc(N3CCC(CN4CCN(c5ccc6c(c5)CN([C@H]5CCC(=O)NC5=O)C6=O)CC4)CC3)cc2)[C@H]1c1ccccc1 [Compound I-174, (S)-3-(5-(4-((1-(4-((1R,2S,3S)-6-hydroxy-3-methyl-2-phenyl-1,2,3,4-tetrahydronaphthalen-1-yl)phenyl)piperidin-4-yl)methyl)piperazin-1-yl)-1-oxoisoindolin-2-yl)piperidine-2,6-dione] as the molecule, how does the DC50 read?
A: 18 nM

Q: How did the DC50 turn out when CN(CC1CCN(c2ccc([C@H]3c4ccc(O)cc4CC[C@H]3c3ccccc3)cc2)CC1)C1CN(c2ccc3c(c2)CN(C2CCC(=O)NC2=O)C3=O)C1 (single isomer, unassigned) [II-14] was run?
A: ≥ 10000 nM

Q: How did the DC50 turn out when O=C1CC[C@H](N2Cc3cc(N4CCN(CC5CCN(c6ccc([C@@H]7c8ccc(O)cc8CO[C@@H]7C7CCC7)cc6)CC5)CC4)ccc3C2=O)C(=O)N1 [Compound I-245, (S)-3-(5-(4-((1-(4-((3R,4R)-3-cyclobutyl-7-hydroxyisochroman-4-yl)phenyl)piperidin-4-yl)methyl)piperazin-1-yl)-1-oxoisoindolin-2-yl)piperidine-2,6-dione] was run?
A: 0.23 nM
